Source: US20200407712A1, “ARRAY-BASED CYCLIC PEPTIDE LIBRARIES” (HealthTell Inc., priority 2018, published 2020)

Experiments:
[1] = intramolecular disulfide formation by ambient air oxidation of bis-Cys peptides on SiO2 array surface after side-chain deprotection (TFA/TMS-OTf) and NH3-gas DKP detachment; fraction oxidized from MALDI relative peak intensities; conditions: the molecule shown is the open-chain precursor, none (dry film on SiO2, ambient air), other, 18.0 h, scale: fraction oxidized
[2] = test system: Ferredoxin; experiment: Biotinylated ferredoxin counter screen on linear and lactam constrained peptide microarrays; type: binding; conditions: 10.0 nM biotinylated protein, detected with Streptavidin-Alexa Fluor 555; for Ferredoxin Lactam, log 10 transformed median intensity: lactam constrained library peptide; for Ferredoxin Linear, log 10 transformed median intensity: linear library peptide
From the text: (§1) Diaphorase is NAD(P)H dehydrogenase (UniProtKB: P15559) encoded by the NQO1 gene. Diaphorase has utility as a model enzyme; for which peptide based synthetic affinity agents to diaphorase are required. A 3.3 million feature peptide array was used to identify potential binding partner peptides for diaphorase. Ferredoxin NADP+ Reductase (FNR) and Ferredoxin are included as counter screens for a specific application, while immunoglobulin depleted human serum (Non-Immunoglobulin Serum Components or NISC) was used as a complex mixture to control for generally sticky peptides.
(§2) Peptide arrays were prepared for protein binding by pretreating the arrays in PBST for 30 min at […]. Direct labeled diaphorase (Alexa Fluor™ 555), direct labeled FNR (Alexa Fluor™ 555) and biotinylated ferredoxin were applied to the arrays at 1.0 and 10.0 nM along with direct labeled NISC at 0.001 mg/mL for 1 hr at 37° C. Arrays were washed 3× with PBST and Streptavidin-Alexa Fluor™ 555 was applied to the biotinylated ferredoxin and streptavidin alone arrays. All other arrays received PBST and were incubated for 1 hr at 37° C. Arrays were washed with PBST and p53Ab1-Alexa Fluor™ 647 applied to all arrays to illuminate the edge fiducials for 10 min at 37° C. Following the final incubation arrays were washed in PBST and water, dried and imaged on the ImageXpress ([…]). Triplicate arrays were used for the subsequent analysis except for when rejection of an array was necessary due to the presence of artifacts. Data were analyzed using a custom R script.

[3] = test system: Ferredoxin NADP+ Reductase (FNR); experiment: FNR counter screen on linear and lactam constrained peptide microarrays; type: binding; conditions: 10.0 nM protein applied to the array; for FNR Lactam, log 10 transformed median intensity: lactam constrained library peptide; for FNR Linear, log 10 transformed median intensity: linear library peptide
From the text: as §1, §2

[4] = test system: Non-Immunoglobulin Serum Components (NISC); experiment: NISC counter screen on linear and lactam constrained peptide microarrays; type: binding, human; conditions: 0.001 mg/mL NISC applied to the array; for NISC Lactam, log 10 transformed median intensity: lactam constrained library peptide; for NISC Linear, log 10 transformed median intensity: linear library peptide
From the text: as §1, §2
Peptides were also selected based on the difference in log 10 transformed intensities between diaphorase and NISC as the counter screen agent (LFGdiaphorase minus LFGNISC). Intensities for 10.0 nM diaphorase and 0.001 mg/mL NISC are shown in FIG. 29A where intensities plotted are the log 10 transformed median intensity from replicate arrays. Coloring of the points represents the density of features at that intensity using a grey colorscale. Light grey represents areas of low peptide numbers while black represents the intensity having the highest number of peptides. The diagonal line is equivalence line. Selectivity vs NISC was not dependent on cyclization as diaphorase also bound the linear forms for some peptides (Table 4). Three peptides having the highest degree of cyclization in the quality control assay were identified and binding intensities compared to other library peptides having one or two amino acid substitutions (FIG. 30) Each CLUSTAL alignment contains the library peptides having a maximum of two substitutions to the parent peptide. Dark grey highlights indicate a residue conserved in more than 60% of the peptides. Light grey highlights indicate chemically similar amino acids to the conserved residue. The amino acid usage is indicated in the sequence logo above the alignment. Substitutional analysis provides confidence in the array data by indicating which residues are important for binding.

[5] = target: T1, human diaphorase (NQO1) (Homo sapiens, UniProt P15559); experiment: Alexa Fluor 555-diaphorase binding to linear and lactam constrained peptide microarrays; conditions: 10.0 nM protein applied to the array; for Diaphorase Lactam, log 10 transformed median intensity: lactam constrained library peptide; for Diaphorase Linear, log 10 transformed median intensity: linear library peptide
T1 construct: purchased SigmaAldrich
T1 sequence (P15559 whole entry): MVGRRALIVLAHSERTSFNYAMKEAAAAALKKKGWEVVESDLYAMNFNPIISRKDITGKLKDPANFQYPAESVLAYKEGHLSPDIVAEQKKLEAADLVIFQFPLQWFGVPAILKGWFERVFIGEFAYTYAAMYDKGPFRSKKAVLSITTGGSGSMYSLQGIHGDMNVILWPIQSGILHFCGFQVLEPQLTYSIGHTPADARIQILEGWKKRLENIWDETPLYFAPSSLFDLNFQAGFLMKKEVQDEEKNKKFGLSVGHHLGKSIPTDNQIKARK
From the text: as §1
Two wafers from the same synthesis batch were obtained where one wafer was prepared with the lactam chemistry and constrained into a cyclized form. The degree of cyclization was confirmed using the biotinylation assay described in Examples 9, 17, and 19.
as §2
Intensities plotted are the log 10 transformed median intensity from replicate arrays. Coloring of the points represents the density of features at that intensity using a gray-scale map. Light grey represents areas of low peptide numbers while black represents the intensity having the highest number of peptides. The diagonal line is equivalence line. […] CLUSTAL sequence alignment (FIG. 27B) of the sequences indicated similarities in amino acid composition. Highlighted amino acids are conserved in over 60% of the peptides for that position or are a chemically similar amino acid (ie: F and Y).
The sequences contain similar amino acid usage. Four peptides having the highest degree of cyclization in the quality control assay were identified and binding intensities compared to other library peptides having one or two amino acid substitutions as shown in FIG. 28. Substitutional analysis provides confidence in the array data by indicating which residues are important for binding. Dark grey boxes highlight indicate a residue conserved in more than 60% of the peptides. Light grey boxes highlight indicate chemically similar amino acids to the conserved residue. RFI is the intensity is the median replicate log 10 intensity for the 10.0 nM Diaphorase.

[6] = target: Streptavidin (Streptomyces avidinii, UniProt P22629); experiment: Streptavidin-Alexa Fluor 555 alone on linear and lactam constrained peptide microarrays; type: binding; conditions: for Streptavidin Lactam, log 10 transformed median intensity: lactam constrained library peptide; for Streptavidin Linear, log 10 transformed median intensity: linear library peptide
Sequence of Streptavidin (P22629 25-183, species assumed): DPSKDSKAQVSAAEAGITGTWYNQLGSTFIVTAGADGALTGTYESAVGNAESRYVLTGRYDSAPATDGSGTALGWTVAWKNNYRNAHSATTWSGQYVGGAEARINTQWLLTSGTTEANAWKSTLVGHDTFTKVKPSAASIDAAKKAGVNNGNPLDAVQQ
Description: as §2

Compound	ring closure, fraction oxidized by MALDI ([1]; 14-membered ring)	ring closure, fraction oxidized by MALDI ([1]; 8-membered ring)	ring closure, fraction oxidized by MALDI ([1]; 20-membered ring)	Ferredoxin Lactam, log 10 transformed median intensity [2]	Ferredoxin Linear, log 10 transformed median intensity [2]	FNR Lactam, log 10 transformed median intensity [3]	FNR Linear, log 10 transformed median intensity [3]	NISC Lactam, log 10 transformed median intensity [4]	NISC Linear, log 10 transformed median intensity [4]	Diaphorase Lactam, log 10 transformed median intensity [5]	Diaphorase Linear, log 10 transformed median intensity [5]	Streptavidin Lactam, log 10 transformed median intensity [6]	Streptavidin Linear, log 10 transformed median intensity [6]
COc1cc(OC)c([P+](CC(=O)N[C@@H](CCCCN)C(=O)N[C@@H](CS)C(=O)N2CCC[C@H]2C(=O)NCC(=O)N[C@@H](CS)C(=O)N[C@@H](CC(C)C)C(=O)NCCCC[C@@H]2NC(=O)[C@@H]3CCCN3C2=O)(c2c(OC)cc(OC)cc2OC)c2c(OC)cc(OC)cc2OC)c(OC)c1	0.73	–	–	–	–	–	–	–	–	–	–	–	–
COc1cc(OC)c([P+](CC(=O)N[C@@H](CCCCN)C(=O)N[C@@H](CS)C(=O)N[C@@H](CS)C(=O)N[C@@H](CC(C)C)C(=O)NCCCC[C@@H]2NC(=O)[C@@H]3CCCN3C2=O)(c2c(OC)cc(OC)cc2OC)c2c(OC)cc(OC)cc2OC)c(OC)c1	–	0.78	–	–	–	–	–	–	–	–	–	–	–
COc1cc(OC)c([P+](CC(=O)N[C@@H](CS)C(=O)N2CCC[C@H]2C(=O)NCC(=O)N[C@@H](CS)C(=O)NCCCC[C@@H]2NC(=O)[C@@H]3CCCN3C2=O)(c2c(OC)cc(OC)cc2OC)c2c(OC)cc(OC)cc2OC)c(OC)c1	0.77	–	–	–	–	–	–	–	–	–	–	–	–
COc1cc(OC)c([P+](CC(=O)N[C@@H](CS)C(=O)N[C@@H](CCC(N)=O)C(=O)N2CCC[C@H]2C(=O)NCC(=O)N[C@@H](Cc2ccc(O)cc2)C(=O)N[C@@H](CS)C(=O)NCCCC[C@@H]2NC(=O)[C@@H]3CCCN3C2=O)(c2c(OC)cc(OC)cc2OC)c2c(OC)cc(OC)cc2OC)c(OC)c1	–	–	0.75	–	–	–	–	–	–	–	–	–	–
COc1cc(OC)c([P+](CC(=O)N[C@@H](CS)C(=O)N[C@@H](CCC(N)=O)C(=O)N[C@@H](Cc2ccc(O)cc2)C(=O)N[C@@H](CS)C(=O)NCCCC[C@@H]2NC(=O)[C@@H]3CCCN3C2=O)(c2c(OC)cc(OC)cc2OC)c2c(OC)cc(OC)cc2OC)c(OC)c1	0.72	–	–	–	–	–	–	–	–	–	–	–	–
COc1cc(OC)c([P+](CC(=O)N[C@@H](CS)C(=O)N[C@H](C(=O)N[C@@H](Cc2c[nH]cn2)C(=O)N[C@@H](CS)C(=O)NCCCC[C@@H]2NC(=O)[C@@H]3CCCN3C2=O)[C@@H](C)O)(c2c(OC)cc(OC)cc2OC)c2c(OC)cc(OC)cc2OC)c(OC)c1	0.78	–	–	–	–	–	–	–	–	–	–	–	–
COc1cc(OC)c([P+](CC(=O)N[C@@H](Cc2ccc(O)cc2)C(=O)N[C@@H](CS)C(=O)N2CCC[C@H]2C(=O)NCC(=O)N[C@@H](CS)C(=O)N[C@@H](CO)C(=O)NCCCC[C@@H]2NC(=O)[C@@H]3CCCN3C2=O)(c2c(OC)cc(OC)cc2OC)c2c(OC)cc(OC)cc2OC)c(OC)c1	0.76	–	–	–	–	–	–	–	–	–	–	–	–
COc1cc(OC)c([P+](CC(=O)N[C@@H](Cc2ccc(O)cc2)C(=O)N[C@@H](CS)C(=O)N[C@@H](CS)C(=O)N[C@@H](CO)C(=O)NCCCC[C@@H]2NC(=O)[C@@H]3CCCN3C2=O)(c2c(OC)cc(OC)cc2OC)c2c(OC)cc(OC)cc2OC)c(OC)c1	–	0.7	–	–	–	–	–	–	–	–	–	–	–
TSFFPGYN [library array peptide, tested lactam constrained and linear]	–	–	–	2.71	2.54	2.62	2.54	3.47	2.60	4.51	2.86	2.52	2.53
TTFFQPSY [library array peptide, tested lactam constrained and linear]	–	–	–	2.78	2.54	2.55	2.54	3.35	2.59	4.46	2.77	2.52	2.54
TTFSFSTP [library array peptide, tested lactam constrained and linear]	–	–	–	2.69	2.58	2.62	2.57	3.33	2.62	4.47	2.78	2.55	2.54
TTLFQTPY [library array peptide, tested lactam constrained and linear]	–	–	–	2.66	2.54	2.63	2.54	3.28	2.69	4.45	2.80	2.53	2.52
TYPGVYPS [library array peptide, tested lactam constrained and linear]	–	–	–	2.69	2.54	2.59	2.54	3.16	2.58	4.40	2.75	2.53	2.51
TYPIYGPA [library array peptide, tested lactam constrained and linear]	–	–	–	2.80	2.55	2.59	2.53	3.43	2.59	4.46	2.77	2.54	2.52
VPSSYNLN [library array peptide, tested lactam constrained and linear]	–	–	–	2.6	2.58	2.58	2.57	2.68	2.65	4.38	3.82	2.57	2.57
